According to US7034020B2, “Derivatives of butyric acid and uses thereof” (The University of Arkansas for Medical Science, priority 1999, dated 2006):

Assays:
[1] = system: isotype-specific anti-ovalbumin antibody; assay: Isotype-specific anti-ovalbumin antibody after a single dose of MEB, primary and secondary response; type: in vivo, C57BL/10 mice
Method: C57BL/10 mice are injected ip with ovalbumin/CFA on day 0, followed by a single ip injection of saline or MEB (0.15 mmol) on Days 2 or 3. The mice are reimmunized with ovalbumin sc on Day 10. Isotype-specific anti-ovalbumin antibody generated during the primary immune response (FIG. 4A), and the secondary immune response (FIG. 4B) are measured in the serum at day 10 and day 16, respectively. (FIG. 4C). […] This experiment was repeated, and the proliferation data represents the means of the two experiments.
The butyrate derivatives are tested for their ability to suppress lymphocyte activity in vivo. C57BL/10 mice (5 mice/group) are injected ip with 100 μg of ovalbumin in conjunction with complete Freund's adjuvant on Day 0. In one experiment, the mice also receive one ip injection per day of the butyrate derivatives (0.091 mmol) on Days 1–3. Serum samples are obtained 10 days after the initial injection with ovalbumin, and tested for the presence of anti-ovalbumin antibodies using an ELISA. To perform the ELISA 96 well plates (Costar 3595) are first incubated with ovalbumin (100 μl/well of 100 μg/ml in PBS) overnight at 4° C. The plates are then washed 4 times with PBS and 0.5% Tween 20, blocked with 1% fetal calf serum for 30 minutes at 37° C., and washed again. Individual serum samples are added (diluted 1/100 or 1/1000 in PBS), and the plates are incubated for 2 hours at 20° C. The plates were next washed 7 times with PBS/Tween, and alkaline phosphate (AP)-labeled goat anti-mouse IgG, IgA, IgM (H+L) (Zymed) is added ( 1/1000) for 1 hour at 20° C. The plates are again washed 7 times with PBS/Tween, alkaline phosphate substrate (1 mg/ml) is added. After 10 minutes, Ig levels are quantified by an ELISA reader (absorbance 405 nm). The concentration of anti-ovalbumin is determined by comparison with a standard curve obtained using mouse anti-ovalbumin antibody (Sigma; St. Louis, Mo.). To measure isotype-specific anti-ovalbumin antibodies, serum samples (diluted at 1/300 or 1/1000) are incubated on the ovalbumin-coated plates as described above. After washing, biotinylated detecting antibodies directed against mouse IgG2a (rat IgG1, clone R19–15), IgG2b (rat IgG2a, clone R12–3) IgG1 (rat IgG1, clone A85–1), or IgM (rat IgG2a, clone R6–60.2) (all purchased from PharMingen, La Jolla, Calif.) are added at 2.5 μg/ml for one hour at 20° C. followed by AP-labeled ExtrAvidin (Sigma) for one hour at 20° C. and AP substrate. Ig levels are presented as OD measurements. […]

[2] = system: KLH-specific Th1 cells (clone C3); assay: Cell cycle analysis (DNA content) of IL-2-stimulated Th1 cells; type: cell-based, C57BL/10 mice
Method: KLH-specific, Th1 cells (clone C3) are left unstimulated (resting), or are stimulated with IL-2 (10% Con A CM) in the presence or absence of MEB (1 mM). The Th1 cells are collected after 48 hours, and assayed for DNA content.
KLH-specific Th1 cells (clone C3) were stimulated with IL-2 (10% Con A CM) at the initiation of culture, and then again at 24, 48, and 96 hours (FIG. 8A). Some cultures also received a single dose of MEB (1 mM) at times 0, 15, 24 or 39 hours after the initiation of culture (FIGS. 8B, 8C, 8D, and 8E, respectively). The Th1 cells were collected at 0, 48, 72, 96 or 120 hours after the initiation of culture and assayed for DNA content.
If the ability of butyrate and its derivatives to induce Th1 cell tolerance is linked to their ability to block antigen-activated Th1 cells in G1, their therapeutic importance is enhanced if MEB induces G1 cell cycle blockade regardless of when in the cell cycle the compound is added. MEB is added to cultures of IL-2-stimulated Th1 at various time points. In the absence of MEB, it is shown that approximately 50% of IL-2-activated Th1 cells have exited G1 by Day 2 (FIG. 8). I n contrast, if MEB is added at the initiation of culture, over 97% of the IL-2-stimulated Th1 cells remain in G0/G1 for the duration of the experiment (120 hours). […] If MEB is added 24 hours instead of 15 hours after IL-2 stimulation, 89% of the Th1 cells are blocked in G1 phase by 48 h, and the cell cycle profile looks very similar to that obtained if MEB is added at the initiation of culture. Finally, even if MEB is added as late as 39 hours after IL-2 stimulation, 87% of the Th1 cells (as compared to 49.9% of controls) are sequestered in G0/G1 when DNA content is measured at 72 hours.
To examine DNA content, Th1 cells were fixed in prechilled 70% ethanol overnight at 4° C. The fixed Th1 cells were next washed in PBS, resuspended in 1 ml of staining buffer containing RNase (1 mg/ml; Sigma) and propidium iodide (50 μg/ml; Sigma), incubated for 20 minutes in the dark at 20° C., and analyzed by flow cytometry using a FACSCalibur (Becton Dickinson, Moutain View, Calif.). The data were analyzed using the ModFit DNA analysis program (Verity Software House).

[3] = single ip dose 0.15 mmol on Day 2 or 3, serum day 10
[4] = single ip dose 0.15 mmol on day 2, serum day 10
[5] = single ip dose 0.15 mmol on day 2 or day 3, reimmunized Day 10, serum day 16
[6] = single ip dose 0.15 mmol, reimmunized Day 10, serum day 16

CCCC(=O)OCCN1CCOCC1.Cl [MEB, 2-(4-Morpholinyl)ethyl butyrate hydrochloride]
IgG2a anti-ovalbumin antibody, primary response [1, 3]: significantly decreased | IgG2b anti-ovalbumin antibody, primary response [1, 3]: significantly decreased | IgG, anti-ovalbumin antibody, primary response [1, 4]: decreased, albeit not dramatically | IgM anti-ovalbumin antibody, primary response [1, 4]: decreased, albeit not dramatically | Decrease of IgG2a anti-ovalbumin antibody, secondary response, compared to controls [1, 5]: 80% | Decrease of IgG2b anti-ovalbumin antibody, secondary response, compared to controls [1, 5]: 80% | IgG1 anti-ovalbumin production, secondary response [1, 6]: significantly decreased | IgM anti-ovalbumin production, secondary response [1, 6]: unaffected | Th1 cells remaining in G0/G1 ([2]; IL-2 (10% Con A CM) plus MEB 1 mM, 48 hours): essentially all | IL-2-stimulated Th1 cells in G0/G1 ([2]; MEB 1 mM added 15 hours after IL-2, by 96 hours (control 56.9%)): 79.3% | IL-2-stimulated Th1 cells in G1 ([2]; MEB 1 mM added 24 hours after IL-2, by 48 h): 89% | IL-2-stimulated Th1 cells in G0/G1 ([2]; MEB 1 mM added 39 hours after IL-2, at 72 hours (control 49.9%)): 87% | IL-2-stimulated Th1 cells in G0/G1 ([2]; MEB 1 mM added at initiation of culture, for duration of experiment (120 hours)): over 97%
